Experimental data published in patent US11306063B2, “Heterocyclic naphthoquinones derivatives for use in the treatment of cancers including Cushing disease” (Commissariat a l'Energie Atomique et aux Energies …, priority 2016, dated 2022).
pIC50: −log10 of the molar value. Where two headings read alike, the source gives them in different places.

Legend:
[1] = target: T1, USP2^CD (purified catalytic domain of USP2) (Homo sapiens, UniProt O75604); experiment: Inhibition of purified USP2^CD enzymatic activity (Ub-AMC or Ub-Rho substrate); type: biochemical; conditions: for inhibition at 0.01 µM: 0.01 μM compound; for inhibition at 0.05 µM: 0.05 μM compound; for inhibition at 0.1 µM: 0.1 μM compound; for inhibition at 0.5 µM: 0.5 μM compound; for inhibition at 1 µM: 1 μM compound; for inhibition at 5 µM: 5 μM compound; for inhibition at 10 µM: 10 μM compound; for inhibition at 25 µM: 25 μM compound; for inhibition at 50 µM: 50 μM compound; for pIC50: read-out: IC50 USP2 CD
T1 construct: The purified catalytic domain of USP2 (USP2^CD, in-house purified); His; made in house; host or cells: E. coli BL21 Gold
T1 sequence (O75604 267-599 limits assumed): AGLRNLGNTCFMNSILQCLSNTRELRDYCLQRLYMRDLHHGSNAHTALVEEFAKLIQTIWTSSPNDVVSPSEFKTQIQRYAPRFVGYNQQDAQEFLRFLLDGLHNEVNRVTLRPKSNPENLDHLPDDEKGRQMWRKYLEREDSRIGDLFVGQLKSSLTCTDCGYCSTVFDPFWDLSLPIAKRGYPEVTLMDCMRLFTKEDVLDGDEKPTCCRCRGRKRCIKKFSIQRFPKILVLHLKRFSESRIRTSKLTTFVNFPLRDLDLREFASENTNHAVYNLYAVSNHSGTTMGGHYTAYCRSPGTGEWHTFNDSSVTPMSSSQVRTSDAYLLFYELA
Description: (§1) USP2CD or USP8CD were expressed in E. coli BL21 Gold. Cells were grown in LB Miller to mid-log phase and induced by addition of 0.5 mM IPTG for USP2CD for 5 h at 20° C., while 1 mM IPTG was added for USP8CD for 3 h at 37° C. Then, cells were harvested and frozen at −80° C.
For His-tagged USP2CD, cells were resuspended in buffer C (10 mM TRIS pH 8.0, 100 mM NaCl, 10 mM Imidazole) and lysed using a sonicator. The lysate was clarified by centrifugation and applied to Ni Sepharose6 Fast Flow resin (GE Healthcare). The resin was sequentially washed with buffer C, then with buffer C containing 50 mM Imidazole. Protein sample was eluted from the resin using buffer C containing 250 mM Imidazole. The eluted protein was buffer exchanged by gel-filtration on a Superdex 200 10/300 GL column (GE Healthcare) equilibrated in Buffer D (15 mM Bis-TRIS pH 6.0, 100 mM NaCl, 1 mM dithiothreitol (DTT)).
(§2) Enzymatic assay was performed in a HEPES buffer (50 mM pH7.6 1 mM DTT, 2% glycerol, 0.5 mM EDTA) or in a Tris buffer (40 mM pH7.4 1 mM DTT, 5% glycerol, 0.05 mg/ml BSA) respectively, following manufacturer's instructions. Compounds were added to the reaction mixture just prior to the substrate. The enzymatic reaction kinetics was monitored through the apparition of fluorescence due to the hydrolysis of the peptidyl Ub-AMC or Ub-Rho bound over 20 or 30 minutes.
(§3) Medium value out of duplicates is reported.

[2] = target: T2, USP8^CD (purified catalytic domain of USP8) (Homo sapiens, UniProt P40818); experiment: Inhibition of purified USP8^CD enzymatic activity (Ub-AMC or Ub-Rho substrate); type: biochemical; conditions: for inhibition at 0.01 µM: 0.01 μM compound; for inhibition at 0.05 µM: 0.05 μM compound; for inhibition at 0.1 µM: 0.1 μM compound; for inhibition at 0.5 µM: 0.5 μM compound; for inhibition at 1 µM: 1 μM compound; for inhibition at 5 µM: 5 μM compound; for inhibition at 10 µM: 10 μM compound; for inhibition at 25 µM: 25 μM compound; for inhibition at 50 µM: 50 μM compound; for pIC50: read-out: IC50 USP8 CD
T2 construct: the purified catalytic domain of USP8 (USP8^CD, in-house purified); made in house; host or cells: E. coli BL21 Gold
T2 sequence (P40818 777-1109 limits assumed): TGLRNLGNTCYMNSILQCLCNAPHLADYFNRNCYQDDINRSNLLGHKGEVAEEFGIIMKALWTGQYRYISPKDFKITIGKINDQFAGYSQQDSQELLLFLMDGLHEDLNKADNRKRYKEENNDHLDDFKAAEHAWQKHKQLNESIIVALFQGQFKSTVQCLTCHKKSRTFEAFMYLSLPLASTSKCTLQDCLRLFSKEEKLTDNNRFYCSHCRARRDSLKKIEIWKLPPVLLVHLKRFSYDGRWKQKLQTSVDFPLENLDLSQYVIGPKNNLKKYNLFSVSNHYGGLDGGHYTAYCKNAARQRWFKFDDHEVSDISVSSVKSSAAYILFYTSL
Description: as §1
For His-tagged USP8CD, cells were resuspended in buffer A (50 mM TRIS pH 8.0, 500 mM NaCl, 2 mM Imidazole) and lysed using a sonicator. The lysate was clarified by centrifugation and applied to Ni Sepharose6 Fast Flow resin (GE Healthcare). The resin was sequentially washed first with buffer A containing 10 mM Imidazole then with buffer A containing 20 mM Imidazole, and finally with buffer A containing 50 mM Imidazole. Protein sample was eluted from the resin using buffer A containing 300 mM Imidazole. The eluted protein was buffer exchanged by gel-filtration on a Superdex 200 10/300 GL column (GE Healthcare) equilibrated in Buffer B (20 mM HEPES pH 7.5, 300 mM NaCl, 2 mM dithiothreitol (DTT)).
as §2, §3

[3] = Ub-AMC substrate at 1 μM, Table 2b
[4] = Ub-Rhodamine substrate at 0.1 μM, Table 2c

## O=C1c2ccccc2C(=O)c2nc(CS(=O)(=O)c3cccc(F)c3)c(CS(=O)(=O)c3cccc(F)c3)nc21 [OVM13]
[1]; Table 1c
  inhibition at 0.01 µM: 9%
  inhibition at 0.05 µM: -20%
  inhibition at 0.1 µM: -32%
  inhibition at 0.5 µM: -3%
  inhibition at 1 µM: -6%
  inhibition at 5 µM: 10%
  inhibition at 10 µM: 1%
[1]; Table 1b
  inhibition at 1 µM: 17%
  inhibition at 5 µM: 48%
  inhibition at 25 µM: 66%
  inhibition at 50 µM: 41%
[1]; [3]
  pIC50: < 5.00
[2]; Table 1d
  inhibition at 0.01 µM: -22%
  inhibition at 0.05 µM: 3%
  inhibition at 0.1 µM: -9%
  inhibition at 0.5 µM: 44%
  inhibition at 1 µM: 65%
  inhibition at 5 µM: 76%
  inhibition at 10 µM: 35%
[2]; Table 1b
  inhibition at 1 µM: 60%
  inhibition at 5 µM: 88%
  inhibition at 25 µM: 102%
  inhibition at 50 µM: 94%
[2]; [3]
  pIC50: 6.40
[2]; [4]
  pIC50: 6.40

## O=C1c2ccccc2C(=O)c2nc(CS(=O)(=O)c3cccc(C(F)(F)F)c3)c(CS(=O)(=O)c3cccc(C(F)(F)F)c3)nc21 [OVM17]
[1]; Table 1b
  inhibition at 1 µM: -11%
  inhibition at 5 µM: 9%
  inhibition at 25 µM: 27%
  inhibition at 50 µM: 25%
[2]; Table 1b
  inhibition at 1 µM: 25%
  inhibition at 5 µM: 33%
  inhibition at 25 µM: 68%
  inhibition at 50 µM: 85%

## COc1ccc(S(=O)(=O)Cc2nc3c(nc2CS(=O)(=O)c2ccc(OC)cc2)C(=O)c2ccccc2C3=O)cc1 [PCR7994]
[1]; Table 1c
  inhibition at 0.01 µM: -8%
  inhibition at 0.05 µM: -12%
  inhibition at 0.1 µM: 2%
  inhibition at 0.5 µM: 26%
  inhibition at 1 µM: 5%
  inhibition at 5 µM: 8%
  inhibition at 10 µM: 17%
[1]; Table 1b
  inhibition at 1 µM: -9%
  inhibition at 5 µM: 22%
  inhibition at 25 µM: 53%
  inhibition at 50 µM: 50%
[1]; [3]
  pIC50: < 5.00
[2]; Table 1d
  inhibition at 0.01 µM: -7%
  inhibition at 0.05 µM: -13%
  inhibition at 0.1 µM: -23%
  inhibition at 0.5 µM: 18%
  inhibition at 1 µM: 31%
  inhibition at 5 µM: 52%
  inhibition at 10 µM: 73%
[2]; Table 1b
  inhibition at 1 µM: 62%
  inhibition at 5 µM: 68%
  inhibition at 25 µM: 91%
  inhibition at 50 µM: 100%
[2]; [3]
  pIC50: 5.30

## O=C1c2ccccc2C(=O)c2nc(CBr)c(CBr)nc21 [PCR8132]
[1]; [3]
  pIC50: 4.77
[2]; [3]
  pIC50: 5.35

## O=C1c2ccccc2C(=O)c2nc(CS(=O)(=O)c3ccc(Br)s3)c(CS(=O)(=O)c3ccc(Br)s3)nc21 [OVM16]
[1]; Table 1b
  inhibition at 1 µM: 1%
  inhibition at 5 µM: 26%
  inhibition at 25 µM: 42%
  inhibition at 50 µM: 80%
[2]; Table 1b
  inhibition at 1 µM: 10%
  inhibition at 5 µM: 56%
  inhibition at 25 µM: 92%
  inhibition at 50 µM: 104%

## O=C1c2ccccc2C(=O)c2nc(CS(=O)(=O)c3cccc(Cl)c3)c(CS(=O)(=O)c3cccc(Cl)c3)nc21 [OVM15]
[1]; Table 1c
  inhibition at 0.01 µM: 19%
  inhibition at 0.05 µM: 3%
  inhibition at 0.1 µM: 3%
  inhibition at 0.5 µM: 23%
  inhibition at 1 µM: 37%
  inhibition at 5 µM: -10%
  inhibition at 10 µM: 17%
[1]; Table 1b
  inhibition at 1 µM: 0%
  inhibition at 5 µM: 1%
  inhibition at 25 µM: 16%
  inhibition at 50 µM: 30%
[1]; [3]
  pIC50: < 5.00
[2]; Table 1d
  inhibition at 0.01 µM: 24%
  inhibition at 0.05 µM: 16%
  inhibition at 0.1 µM: 14%
  inhibition at 0.5 µM: 18%
  inhibition at 1 µM: 64%
  inhibition at 5 µM: 52%
  inhibition at 10 µM: 51%
[2]; Table 1b
  inhibition at 1 µM: 68%
  inhibition at 5 µM: 51%
  inhibition at 25 µM: 70%
  inhibition at 50 µM: 83%
[2]; [3]
  pIC50: 6.40
[2]; [4]
  pIC50: 6.40

## CS(=O)(=O)Cc1nc2c(nc1CS(C)(=O)=O)C(=O)c1ccccc1C2=O [VIN6076]
[1]; Table 1c
  inhibition at 0.01 µM: 17%
  inhibition at 0.05 µM: -7%
  inhibition at 0.1 µM: 4%
  inhibition at 0.5 µM: 6%
  inhibition at 1 µM: 57%
  inhibition at 5 µM: 19%
  inhibition at 10 µM: 56%
[1]; Table 1b
  inhibition at 1 µM: 23%
  inhibition at 5 µM: 66%
  inhibition at 25 µM: 95%
  inhibition at 50 µM: 97%
[1]; [3]
  pIC50: < 5.00
[1]; [4]
  pIC50: 6.19
[2]; Table 1d
  inhibition at 0.01 µM: 27%
  inhibition at 0.05 µM: 14%
  inhibition at 0.1 µM: 30%
  inhibition at 0.5 µM: 47%
  inhibition at 1 µM: 85%
  inhibition at 5 µM: 90%
  inhibition at 10 µM: 98%
[2]; Table 1b
  inhibition at 1 µM: 77%
  inhibition at 5 µM: 100%
  inhibition at 25 µM: 106%
  inhibition at 50 µM: 103%
[2]; [3]
  pIC50: 6.30
[2]; [4]
  pIC50: 8.00

## O=C1c2ccccc2C(=O)c2nc(CS(=O)(=O)c3ccc4c(c3)OCCO4)c(CS(=O)(=O)c3ccc4c(c3)OCCO4)nc21 [OVM19]
[1]; Table 1c
  inhibition at 0.01 µM: -19%
  inhibition at 0.05 µM: -14%
  inhibition at 0.1 µM: 13%
  inhibition at 0.5 µM: -1%
  inhibition at 1 µM: 9%
  inhibition at 5 µM: -3%
  inhibition at 10 µM: 11%
[1]; Table 1b
  inhibition at 1 µM: 20%
  inhibition at 5 µM: 25%
  inhibition at 25 µM: 21%
  inhibition at 50 µM: 18%
[1]; [3]
  pIC50: < 5.00
[2]; Table 1d
  inhibition at 0.01 µM: -22%
  inhibition at 0.05 µM: -5%
  inhibition at 0.1 µM: -9%
  inhibition at 0.5 µM: 17%
  inhibition at 1 µM: 44%
  inhibition at 5 µM: 46%
  inhibition at 10 µM: 54%
[2]; Table 1b
  inhibition at 1 µM: 53%
  inhibition at 5 µM: 61%
  inhibition at 25 µM: 76%
  inhibition at 50 µM: 77%
[2]; [3]
  pIC50: 5.12

## CCCCCS(=O)(=O)Cc1nc2c(nc1CS(=O)(=O)CCCCC)C(=O)c1ccccc1C2=O [VIN6077]
[1]; Table 1c
  inhibition at 0.01 µM: -11%
  inhibition at 0.05 µM: -16%
  inhibition at 0.1 µM: -13%
  inhibition at 0.5 µM: 11%
  inhibition at 1 µM: -17%
  inhibition at 5 µM: 20%
  inhibition at 10 µM: 27%
[1]; Table 1b
  inhibition at 1 µM: 24%
  inhibition at 5 µM: 51%
  inhibition at 25 µM: 63%
  inhibition at 50 µM: 76%
[1]; [3]
  pIC50: < 5.00
[2]; Table 1d
  inhibition at 0.01 µM: 19%
  inhibition at 0.05 µM: -2%
  inhibition at 0.1 µM: 26%
  inhibition at 0.5 µM: 26%
  inhibition at 1 µM: 44%
  inhibition at 5 µM: 100%
  inhibition at 10 µM: 91%
[2]; Table 1b
  inhibition at 1 µM: 54%
  inhibition at 5 µM: 94%
  inhibition at 25 µM: 101%
  inhibition at 50 µM: 100%
[2]; [3]
  pIC50: 5.92
